Test results taken from patent publication US20230192704A1, “MONOCARBOXYLIC ACID TRANSPORTER 4 (MCT4) MODULATORS AND USES THEREOF” (Teon Therapeutics, Inc., priority 2020, published 2023).
pIC50: −log10 of the molar value.

Experiments:
[1] = molecular target: T1, MCT1 (Homo sapiens, UniProt P53985); assay: MCT1 transport assay (L-lactate influx, BCECF-AM intracellular pH); type: cell-based; details: BT-20 cells expressing exclusively MCT1
T1 construct: BT-20 cells—a triple negative human breast cancer cell line expressing exclusively MCT1 (confirmed by Western blotting); host or cells: BT-20
T1 sequence (P53985 1-500): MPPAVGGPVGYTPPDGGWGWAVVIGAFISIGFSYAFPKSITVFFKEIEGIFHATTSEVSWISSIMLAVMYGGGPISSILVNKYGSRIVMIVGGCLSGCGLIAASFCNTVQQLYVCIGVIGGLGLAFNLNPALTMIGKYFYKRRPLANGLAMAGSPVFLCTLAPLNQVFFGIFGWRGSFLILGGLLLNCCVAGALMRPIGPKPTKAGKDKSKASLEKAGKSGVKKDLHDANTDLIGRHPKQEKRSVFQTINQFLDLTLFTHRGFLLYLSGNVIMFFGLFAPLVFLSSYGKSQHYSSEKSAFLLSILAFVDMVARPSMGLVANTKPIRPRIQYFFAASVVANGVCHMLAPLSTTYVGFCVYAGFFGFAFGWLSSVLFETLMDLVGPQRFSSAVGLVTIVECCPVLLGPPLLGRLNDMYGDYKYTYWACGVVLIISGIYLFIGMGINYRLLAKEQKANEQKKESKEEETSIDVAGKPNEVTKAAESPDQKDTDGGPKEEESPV
T1 sequence (P35613 140-385 partner limits assumed): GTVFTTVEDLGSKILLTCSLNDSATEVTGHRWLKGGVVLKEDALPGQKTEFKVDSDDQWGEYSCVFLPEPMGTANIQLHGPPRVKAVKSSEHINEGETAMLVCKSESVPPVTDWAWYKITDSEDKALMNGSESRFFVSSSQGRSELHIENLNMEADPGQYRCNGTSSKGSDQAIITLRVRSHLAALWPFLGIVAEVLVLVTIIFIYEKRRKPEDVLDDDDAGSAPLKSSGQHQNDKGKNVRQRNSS
Excerpt: The following in vitro MCT4 and MCT1 transport assays were used to measure the effect of the compounds on L-lactate influx into two different cell lines: • a) MDA-MB-231 cells—a triple negative human breast cancer cell line expressing exclusively MCT4 (confirmed by Western blotting) was used for the MCT4 transport assay, • b) BT-20 cells—a triple negative human breast cancer cell line expressing exclusively MCT1 (confirmed by Western blotting) was used for the
(§1) The compounds' efficacy in both assays was determined by calculating their IC50 value (the concentration of test compound that inhibited 50% of biological activity).
(§2) MCT4 is predominantly involved in cellular efflux of lactate from the cell, preventing intracellular acidification. In the MCT4 in vitro transport system described here it was possible to drive influx of lactate in the cells and test the compounds efficacy in preventing this process. MCT1 is involved in influx-efflux of lactate, and because it is closely related to MCT4, it is a major selectivity target for MCT4 inhibitor. The MCT1 in vitro transport system described here measured the influx of lactate in the cells and ability of test compounds in preventing this process.
BT-20 (ATCC); Media: EMEM+10% FBS+1% PS
(§3) Tyrode's Solution pH7.4 (NaCl 119 mM; KC1 5 mM; HEPES pH7.4 25 mM; CaCl2 2 mM; MgCl2 2 mM; Glucose 6 g/L)
(§4) The following assay was performed to assess MCT4 (MDA-MB-231 cell line) or MCT1 (BT-20 cell line) activity by monitoring the intracellular pH change that accompanies lactate/proton transport using the pH-sensitive fluorescent dye BCECF-AM.
(§5) Compound preparation: The compounds were serially diluted in 100% DMSO 1:3 for 8 pts and transferred (500 nl) to a 96-well plate by Echo.
(§6) Cell preparation: Cells were briefly rinsed with 10 ml of PBS solution to remove all traces of serum, trypsinized (0.05% Trypsin-EDTA) at 25° C. for 2-3 minutes and washed twice with Tyrode's solution. The cell viability and concentration were determined using Vi-Cell. Cells were resuspended in Tyrode's solution.
(§7) Cells were loaded with the pH sensitive dye BCECF-AM (5 uM final concentration from the 30 mM DMSO stock solution) at 37° C. for 30 minutes before being washed twice to remove excess dye and resuspended to 2 million/ml cells in Tyrode's solution. Cells were seeded into a 96-well plate (200,000 cells/well) directly onto the test compound or a reference compound for 10 minutes at 37° C. Following incubation with test compounds, 25 ul of 30 mM Sodium-L-lactate was added. This addition was performed on the FlexStation III as a part of a real-time kinetic protocol. The ratio of cellular fluorescence at 535 nm after excitation at 490 nm/440 nm was measured over time for baseline (pre-lactate addition) and post-lactate addition for 60 sec with or without compounds present. Inhibitory concentration response curves were generated for compounds and their IC50 values calculated.

[2] = molecular target: T2, MCT4 (Homo sapiens, UniProt O15427); assay: MCT4 transport assay (L-lactate influx, BCECF-AM intracellular pH); type: cell-based; details: MDA-MB-231 cells expressing exclusively MCT4
T2 construct: MDA-MB-231 cells—a triple negative human breast cancer cell line expressing exclusively MCT4 (confirmed by Western blotting); host or cells: MDA-MB-231
T2 sequence (O15427 2-465 limits assumed): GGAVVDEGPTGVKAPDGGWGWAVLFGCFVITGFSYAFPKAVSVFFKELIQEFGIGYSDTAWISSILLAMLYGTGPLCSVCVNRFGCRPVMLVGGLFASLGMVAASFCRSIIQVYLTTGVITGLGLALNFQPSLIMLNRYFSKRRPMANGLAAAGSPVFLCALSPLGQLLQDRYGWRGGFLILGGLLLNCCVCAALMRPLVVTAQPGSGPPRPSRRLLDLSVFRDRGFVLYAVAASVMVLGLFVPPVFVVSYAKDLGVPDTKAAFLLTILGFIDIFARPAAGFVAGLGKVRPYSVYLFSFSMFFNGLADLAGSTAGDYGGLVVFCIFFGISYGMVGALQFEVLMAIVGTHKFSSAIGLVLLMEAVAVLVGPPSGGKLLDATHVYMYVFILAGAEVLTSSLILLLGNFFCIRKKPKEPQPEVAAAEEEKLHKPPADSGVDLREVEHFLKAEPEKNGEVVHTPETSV
Method: as §1, §2, §3, §4, §5, §6, §7

| pIC50 [1] | pIC50 [2] | SMILES |
| --- | --- | --- |
| < 6.00 | 6.00 to 6.30 | Cc1nc2nc(C)c(O[C@@H]3CCN(c4ccc(-c5ccc(C(=O)N6CC(C(N)=O)C6)nn5)cc4)C3)c(C)n2n1 [Compound 17, (R)-1-(6-(4-(3-((2,5,7-trimethyl-[1,2,4]triazolo[1,5-a]pyrimidin-6-yl)oxy)pyrrolidin-1-yl)phenyl)pyridazine-3-carbonyl)azetidine-3-carboxamide] |
| < 6.00 | > 7.00 | Cc1nc2nc(C)c(O[C@@H]3CCN(c4ccc(-c5ccc(C(=O)N6CC(C(=O)N(C)C)C6)nn5)cc4)C3)c(C)n2n1 [Compound 18, (R)-N,N-dimethyl-1-(6-(4-(3-((2,5,7-trimethyl-[1,2,4]triazolo[1,5-a]pyrimidin-6-yl)oxy)pyrrolidin-1-yl)phenyl)pyridazine-3-carbonyl)azetidine-3-carboxamide] |
| < 6.00 | > 7.00 | Cc1nc2nc(C)c(O[C@@H]3CCN(c4ccc(-c5ccc(C(=O)N6CCOCC6)nn5)cc4)C3)c(C)n2n1 [Compound 19, (R)-morpholino(6-(4-(3-((2,5,7-trimethyl-[1,2,4]triazolo[1,5-a]pyrimidin-6-yl)oxy)pyrrolidin-1-yl)phenyl)pyridazin-3-yl)methanone] |
| < 6.00 | > 7.00 | Cc1cc2nc(C)c(O[C@@H]3CCN(c4ccc(-c5ccc(C(=O)N6CCOCC6)nn5)cc4)C3)c(C)n2n1 [Compound 20, (R)-morpholino(6-(4-(3-((2,5,7-trimethylpyrazolo[1,5-a]pyrimidin-6-yl)oxy)pyrrolidin-1-yl)phenyl)pyridazin-3-yl)methanone] |
| < 6.00 | 6.00 to 6.30 | Cc1nc2nc(C)c(O[C@@H]3CCN(c4cnc(C56CC(CN7CC8(COC8)C7)(C5)C6)nc4)C3)c(C)n2n1 [Compound 21, (R)-6-((3-(5-(3-((2,5,7-trimethyl-[1,2,4]triazolo[1,5-a]pyrimidin-6-yl)oxy)pyrrolidin-1-yl)pyrimidin-2-yl)bicyclo[1.1.1]pentan-1-yl)methyl)-2-oxa-6-azaspiro[3.3]heptane] |
| < 6.00 | > 7.00 | COC1CN(CC23CC(c4ncc(N5CC[C@@H](Oc6c(C)nc7nc(C)nn7c6C)C5)cn4)(C2)C3)C1 [Compound 22, (R)-6-((1-(2-(3-((3-methoxyazetidin-1-yl)methyl)bicyclo[1.1.1]pentan-1-yl)pyrimidin-5-yl)pyrrolidin-3-yl)oxy)-2,5,7-trimethyl-[1,2,4]triazolo[1,5-a]pyrimidine] |
| < 6.00 | > 7.00 | Cc1nc2nc(C)c(O[C@@H]3CCN(c4cnc(C56CC(CN7CCOCC7)(C5)C6)nc4)C3)c(C)n2n1 [Compound 23, (R)-4-((3-(5-(3-((2,5,7-trimethyl-[1,2,4]triazolo[1,5-a]pyrimidin-6-yl)oxy)pyrrolidin-1-yl)pyrimidin-2-yl)bicyclo[1.1.1]pentan-1-yl)methyl)morpholine] |
| < 6.00 | < 6.00 | Cc1nc2nc(C)c(O[C@@H]3CCN(c4cnc(C56CC(C(=O)N7CC8(COC8)C7)(C5)C6)nc4)C3)c(C)n2n1 [Compound 24, (R)-(2-oxa-6-azaspiro[3.3]heptan-6-yl)(3-(5-(3-((2,5,7-trimethyl-[1,2,4]triazolo[1,5-a]pyrimidin-6-yl)oxy)pyrrolidin-1-yl)pyrimidin-2-yl)bicyclo[1.1.1]pentan-1-yl)methanone] |
| < 6.00 | 6.00 to 6.30 | COC1CN(C(=O)C23CC(c4ncc(N5CC[C@@H](Oc6c(C)nc7nc(C)nn7c6C)C5)cn4)(C2)C3)C1 [Compound 25, (R)-(3-methoxyazetidin-1-yl)(3-(5-(3-((2,5,7-trimethyl-[1,2,4]triazolo[1,5-a]pyrimidin-6-yl)oxy)pyrrolidin-1-yl)pyrimidin-2-yl)bicyclo[1.1.1]pentan-1-yl)methanone] |
| < 6.00 | 6.30 to 7.00 | Cc1nc2nc(C)c(O[C@@H]3CCN(c4cnc(C56CC(C(=O)N7CCOCC7)(C5)C6)nc4)C3)c(C)n2n1 [Compound 26, (R)-morpholino(3-(5-(3-((2,5,7-trimethyl-[1,2,4]triazolo[1,5-a]pyrimidin-6-yl)oxy)pyrrolidin-1-yl)pyrimidin-2-yl)bicyclo[1.1.1]pentan-1-yl)methanone] |
| < 6.00 | > 7.00 | Cc1nc2nc(C)c(O[C@@H]3CCN(c4ccc([C@H]5CC[C@H](C(=O)N6CC7(COC7)C6)CC5)cc4)C3)c(C)n2n1 [Compound 33, (2-oxa-6-azaspiro[3.3]heptan-6-yl)((1R,4r)-4-(4-((R)-3-((2,5,7-trimethyl-[1,2,4]triazolo[1,5-a]pyrimidin-6-yl)oxy)pyrrolidin-1-yl)phenyl)cyclohexyl)methanone] |
| < 6.00 | > 7.00 | COC1CN(C(=O)[C@H]2CC[C@H](c3ccc(N4CC[C@@H](Oc5c(C)nc6nc(C)nn6c5C)C4)cc3)CC2)C1 [Compound 34, (3-methoxyazetidin-1-yl)((1R,4r)-4-(4-((R)-3-((2,5,7-trimethyl-[1,2,4]triazolo[1,5-a]pyrimidin-6-yl)oxy)pyrrolidin-1-yl)phenyl)cyclohexyl)methanone] |
| < 6.00 | > 7.00 | Cc1nc2nc(C)c(O[C@@H]3CCN(c4ccc([C@H]5CC[C@H](C(=O)N6CCOCC6)CC5)cc4)C3)c(C)n2n1 [Compound 35, morpholino((1R,4r)-4-(4-((R)-3-((2,5,7-trimethyl-[1,2,4]triazolo[1,5-a]pyrimidin-6-yl)oxy)pyrrolidin-1-yl)phenyl)cyclohexyl)methanone] |
